Source: PubChem BioAssay AID248 (DTP/NCI, 2004)
Where “and” joins values, the source holds several entries; their conditions need not be identical. Equal entries are not always repeated. Toxic doses and inconclusive results are not listed. Rule as the data show it: active = T/C of 150% or more; inactive = T/C below 125%.

Tested on: L1210 leukemia ip in BDF1 mice, survival T/C
Test: NCI In Vivo Anticancer Drug Screen. Data for tumor model L1210 Leukemia (intraperitoneal) in B6D2F1 (BDF1) mice
Details: endpoint: mean survival time, higher = longer survival
Method in brief: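 Transplantable tumor model; survival measured in treated vs vehicle control mice. Value = treated/control.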

[1] = dose: 100.0 mg/kg/injection, schedule: Q04DX003 (ip), vehicle: saline
[2] = dose: 200.0 mg/kg/injection, schedule: Q04DX003 (ip), vehicle: saline
[3] = dose: 400.0 mg/kg/injection, schedule: Q04DX003 (ip), vehicle: saline
[4] = dose: 100.0 mg/kg/injection, schedule: Q04DX003 (ip), vehicle: gum acacia
[5] = dose: 200.0 mg/kg/injection, schedule: Q04DX003 (ip), vehicle: gum acacia
[6] = dose: 400.0 mg/kg/injection, schedule: Q04DX003 (ip), vehicle: gum acacia
[7] = dose: 25.0 mg/kg/injection, schedule: Q01DX009 (ip), vehicle: Klucel (hydroxypropylcellulose) (HPC)
[8] = dose: 50.0 mg/kg/injection, schedule: Q01DX009 (ip), vehicle: Klucel (hydroxypropylcellulose) (HPC)
[9] = dose: 100.0 mg/kg/injection, schedule: Q01DX009 (ip), vehicle: Klucel (hydroxypropylcellulose) (HPC)
[10] = dose: 100.0 mg/kg/injection, schedule: Q04DX003 (ip), vehicle: Klucel (hydroxypropylcellulose) (HPC)
[11] = dose: 200.0 mg/kg/injection, schedule: Q01DX009 (ip), vehicle: Klucel (hydroxypropylcellulose) (HPC)
[12] = dose: 200.0 mg/kg/injection, schedule: Q04DX003 (ip), vehicle: Klucel (hydroxypropylcellulose) (HPC)
[13] = dose: 400.0 mg/kg/injection, schedule: Q01DX009 (ip), vehicle: Klucel (hydroxypropylcellulose) (HPC)
[14] = dose: 400.0 mg/kg/injection, schedule: Q04DX003 (ip), vehicle: Klucel (hydroxypropylcellulose) (HPC)
[15] = dose: 50.0 mg/kg/injection, schedule: Q01DX001 (ip), vehicle: carboxymethylcellulose (CMC)
[16] = dose: 100.0 mg/kg/injection, schedule: Q01DX001 (ip), vehicle: saline
[17] = dose: 200.0 mg/kg/injection, schedule: Q01DX001 (ip), vehicle: saline
[18] = dose: 400.0 mg/kg/injection, schedule: Q01DX001 (ip), vehicle: saline
[19] = dose: 25.0 mg/kg/injection, schedule: Q04DX003 (ip), vehicle: Klucel (hydroxypropylcellulose) (HPC)
[20] = dose: 50.0 mg/kg/injection, schedule: Q04DX003 (ip), vehicle: Klucel (hydroxypropylcellulose) (HPC)

Measured: T/C

CCC1c2ccc3cc(OC)ccc3c2CC1CC(=O)O (configuration not stated)
inactive: [1] 92 % of control | [2] 92 % of control | [3] 86 % of control

Nc1ccnc(SCCCCc2ccccc2)n1
inactive: [4] 90 % of control | [5] 93 % of control | [6] 90 % of control

Cc1cc(C)c(NC(=O)Nc2cccc3ccccc23)c(C)c1
inactive: [7] 95 % of control | [8] 96 % of control | [9] 96 % of control and 103 % of control | [10] 96 % of control | [11] 92 % of control | [12] 93 % of control | [13] 91 % of control | [14] 96 % of control

C[N+](C)(CCCCOCCCC[N+](C)(C)Cc1ccc([N+](=O)[O-])cc1)Cc1ccc([N+](=O)[O-])cc1
inactive: dose: 1.5 mg/kg/injection, schedule: Q04DX003 (ip), vehicle: saline with Tween-80 98 % of control | dose: 3.0 mg/kg/injection, schedule: Q04DX003 (ip), vehicle: saline with Tween-80 104 % of control

CC(=N\O)/C(=N/O)c1ccc(O)cc1
inactive: dose: 5.0 mg/kg/injection, schedule: Q01DX001 (ip), vehicle: saline 97 % of control | dose: 10.0 mg/kg/injection, schedule: Q01DX001 (ip), vehicle: saline 100 % of control | dose: 20.0 mg/kg/injection, schedule: Q01DX001 (ip), vehicle: saline 97 % of control

CCOc1cc(/C=N\Nc2nnc(C)n2N)c(C)cc1N(CCCl)CCCl
inactive: dose: 10.5 mg/kg/injection, schedule: Q01DX015 (ip), vehicle: carboxymethylcellulose (CMC) 119 % of control | dose: 18.0 mg/kg/injection, schedule: Q01DX015 (ip), vehicle: carboxymethylcellulose (CMC) 109 % of control | dose: 44.0 mg/kg/injection, schedule: Q01DX001 (ip), vehicle: carboxymethylcellulose (CMC) 110 % of control | [15] 120 % of control | dose: 67.0 mg/kg/injection, schedule: Q01DX001 (ip), vehicle: carboxymethylcellulose (CMC) 110 % of control and 116 % of control | dose: 100.0 mg/kg/injection, schedule: Q01DX001 (ip), vehicle: carboxymethylcellulose (CMC) 111 % of control and 124 % of control | dose: 150.0 mg/kg/injection, schedule: Q01DX001 (ip), vehicle: carboxymethylcellulose (CMC) 105 % of control and 90 % of control | dose: 200.0 mg/kg/injection, schedule: Q01DX001 (ip), vehicle: carboxymethylcellulose (CMC) 105 % of control

CCNC(C)(C)C(=O)c1ccco1
inactive: dose: 50.0 mg/kg/injection, schedule: Q01DX009 (ip), vehicle: saline 94 % of control | dose: 100.0 mg/kg/injection, schedule: Q01DX009 (ip), vehicle: saline 100 % of control | dose: 200.0 mg/kg/injection, schedule: Q01DX009 (ip), vehicle: saline 94 % of control

O=C(O)C1CCN1Cc1ccccc1 (configuration not stated)
inactive: [1] 98 % of control | [2] 101 % of control | [3] 106 % of control

CCCC(C=O)(CCN1CCCC1)c1cccc2ccccc12 (configuration not stated)
inactive: dose: 25.0 mg/kg/injection, schedule: Q04DX002 (ip), vehicle: saline with Tween-80 100 % of control | dose: 50.0 mg/kg/injection, schedule: Q04DX002 (ip), vehicle: saline with Tween-80 94 % of control | dose: 100.0 mg/kg/injection, schedule: Q04DX002 (ip), vehicle: saline with Tween-80 88 % of control

C=C1C(C)=NN=C2C=CN(C(=O)CI)N12
inactive: [16] 109 % of control | [17] 106 % of control | [18] 106 % of control

CC(=O)OC1CC(OC2C(O)CC(OC3C(O)CC(OC4CCC5(C)C(CCC6C5CCC5(C)C(C7=CC(=O)OC7)C(O)CC65O)C4)OC3C)OC2C)OC(C)C1OC1OC(CO)C(O)C(O)C1O (configuration not stated)
inactive: dose: 12.5 mg/kg/injection, schedule: Q04DX003 (ip), vehicle: Klucel (hydroxypropylcellulose) (HPC) 97 % of control | dose: 25.0 mg/kg/injection, schedule: Q01DX001 (ip), vehicle: carboxymethylcellulose (CMC) 111 % of control | [19] 103 % of control | [15] 105 % of control | [20] 112 % of control | [10] 97 % of control

Fc1ccccc1NC1=NCCO1
inactive: [10] 101 % of control | [12] 95 % of control | [14] 92 % of control

CCOC(=O)c1ccccc1NC(OCC)C(=O)c1ccccc1 (configuration not stated) (tested in a mixture with another compound)
inactive: [16] 96 % of control | [17] 97 % of control | [18] 103 % of control

CC12CCCCC1C(C(N)=O)C(=O)O2 (configuration not stated)
inactive: [16] 105 % of control | [17] 97 % of control | [18] 105 % of control

CCOc1ccc(C2(C)OC(=O)C3CCCCC32)c2ccccc12 (configuration not stated)
inactive: [4] 100 % of control | [5] 95 % of control | [6] 90 % of control

C/C=C/C=C\COC(=O)C1CCCC1
inactive: dose: 100.0 mg/kg/injection, schedule: Q04DX002 (ip), vehicle: saline 103 % of control and 107 % of control | dose: 200.0 mg/kg/injection, schedule: Q04DX002 (ip), vehicle: saline 96 % of control and 98 % of control | dose: 400.0 mg/kg/injection, schedule: Q04DX002 (ip), vehicle: saline 107 % of control | dose: 600.0 mg/kg/injection, schedule: Q04DX002 (ip), vehicle: saline 107 % of control

CC12NC(=O)NC(=O)N1CCS2 (configuration not stated)
inactive: dose: 50.0 mg/kg/injection, schedule: Q01DX001 (ip), vehicle: saline 100 % of control | [16] 106 % of control | [17] 102 % of control | [18] 100 % of control

Cc1cnc2c(NC(=O)CCl)nn(C)c2n1
inactive: [7] 98 % of control | [8] 93 % of control | [9] 93 % of control and 91 % of control | [10] 91 % of control | [12] 93 % of control

CCC(CO)NC(=O)C1C=C2c3cccc4c3c(cn4C)CC2N(C)C1 (configuration not stated)
inactive: [7] 94 % of control and 101 % of control | [19] 97 % of control | [8] 94 % of control and 101 % of control | [20] 103 % of control | [9] 111 % of control and 91 % of control | [10] 108 % of control | [11] 120 % of control and 121 % of control | [12] 109 % of control | [13] 120 % of control | [14] 104 % of control

CCOC(=O)c1c[nH]c2c(OC)cccc2c1=O
inactive: dose: 100.0 mg/kg/injection, schedule: Q01DX009 (ip), vehicle: saline with Tween-80 102 % of control | dose: 100.0 mg/kg/injection, schedule: Q04DX003 (ip), vehicle: saline with Tween-80 98 % of control | dose: 200.0 mg/kg/injection, schedule: Q01DX009 (ip), vehicle: saline with Tween-80 88 % of control | dose: 200.0 mg/kg/injection, schedule: Q04DX003 (ip), vehicle: saline with Tween-80 98 % of control | dose: 400.0 mg/kg/injection, schedule: Q01DX009 (ip), vehicle: saline with Tween-80 97 % of control | dose: 400.0 mg/kg/injection, schedule: Q04DX003 (ip), vehicle: saline with Tween-80 109 % of control

C=CCc1cc(CN2CCOCC2)c(O)c(OC)c1
inactive: [9] 98 % of control | dose: 100.0 mg/kg/injection, schedule: Q04DX002 (ip), vehicle: Klucel (hydroxypropylcellulose) (HPC) 101 % of control and 108 % of control | [11] 97 % of control | dose: 200.0 mg/kg/injection, schedule: Q04DX002 (ip), vehicle: Klucel (hydroxypropylcellulose) (HPC) 89 % of control | [13] 103 % of control | dose: 400.0 mg/kg/injection, schedule: Q04DX002 (ip), vehicle: Klucel (hydroxypropylcellulose) (HPC) 107 % of control
